Experimental data reported in US10702543B2, “Intranuclear protein transduction through a nucleoside salvage pathway” (The United States Government as represented by The …, priority 2007, dated 2020).

Columns and labels:
cells in tissue culture = details: cited from earlier work
ENT2 [1] = target: T1, ENT2 (Homo sapiens, UniProt Q14542); test: Inhibition of ENT2 by NBMPR (Ward et al.); format: biochemical
T1 sequence (Q14542 1-456): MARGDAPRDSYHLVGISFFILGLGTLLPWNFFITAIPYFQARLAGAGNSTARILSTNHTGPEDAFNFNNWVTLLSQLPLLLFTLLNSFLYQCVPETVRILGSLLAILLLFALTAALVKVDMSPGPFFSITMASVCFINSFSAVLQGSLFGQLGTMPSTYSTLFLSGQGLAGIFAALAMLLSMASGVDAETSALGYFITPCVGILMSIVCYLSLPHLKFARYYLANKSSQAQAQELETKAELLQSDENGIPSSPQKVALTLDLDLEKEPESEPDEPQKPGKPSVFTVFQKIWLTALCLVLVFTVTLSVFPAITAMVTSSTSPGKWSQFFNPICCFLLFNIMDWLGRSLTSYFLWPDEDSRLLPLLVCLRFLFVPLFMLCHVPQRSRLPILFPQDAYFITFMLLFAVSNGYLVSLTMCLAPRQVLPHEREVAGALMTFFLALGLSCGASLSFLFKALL

ENT2 [2] = target: T1, ENT2; details: read-out: Ki of NBMPR for ENT2; Ward et al., J. Biol. Chem. 2000; cited from earlier work
[3] = test system: ENT subtype equilibrative, insensitive (ei); details: low concentrations (e.g., <1 μM) of NBMPR; cited from earlier work
ENT4 = target: T2, ENT4 (Homo sapiens, UniProt Q7RTT9); details: cited from earlier work
T2 sequence (Q7RTT9 1-530): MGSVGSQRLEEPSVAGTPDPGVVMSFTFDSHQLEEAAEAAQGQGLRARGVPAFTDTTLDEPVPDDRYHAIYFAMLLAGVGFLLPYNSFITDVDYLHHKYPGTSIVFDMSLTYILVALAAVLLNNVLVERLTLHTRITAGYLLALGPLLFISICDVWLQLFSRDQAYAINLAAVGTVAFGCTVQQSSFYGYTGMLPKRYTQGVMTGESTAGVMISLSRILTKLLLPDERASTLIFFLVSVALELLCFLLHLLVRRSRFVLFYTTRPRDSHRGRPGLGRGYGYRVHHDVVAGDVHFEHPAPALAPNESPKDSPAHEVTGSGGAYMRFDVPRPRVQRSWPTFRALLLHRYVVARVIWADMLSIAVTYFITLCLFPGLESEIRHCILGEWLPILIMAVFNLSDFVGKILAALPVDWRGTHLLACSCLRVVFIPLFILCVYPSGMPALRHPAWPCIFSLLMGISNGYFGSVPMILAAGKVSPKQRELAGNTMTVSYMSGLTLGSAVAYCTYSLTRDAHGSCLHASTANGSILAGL

Compound | harm to cells that it penetrates (cells in tissue culture) | ENT2 activity (ENT2 [1]; at 10 μM NBMPR) | expected suppression of ENT2 activity (ENT2 [1]; by 10 μM NBMPR) [%] | Ki (ENT2 [2]) [µM] | effect of NBMPR on the ei subtype [3] | inhibition of ENT4 by NBMPR (ENT4)
mAb 3E10: monoclonal anti-DNA antibody produced by hybridoma 3E10, ATCC accession number PTA-2439 | no harm |  |  |  |  | 
O=[N+]([O-])c1ccc(CSc2ncnc3c2ncn3C2OC(CO)C(O)C2O)cc1 (stereo not drawn) [NBMPR, Nitrobenzylmercaptopurine riboside] |  | retains moderate activity | > 50 | 2.8 | unaffected | weakly inhibited
